The text below walks through data of US12084472B2 (Ardelyx, Inc., priority 2015, dated 2024).

One assay has as its target T1, human TGR5 (Homo sapiens, UniProt Q8TDU6).
T1 construct: expressed in transfected cells; host or cells: HEK293
T1 sequence (Q8TDU6 1-330): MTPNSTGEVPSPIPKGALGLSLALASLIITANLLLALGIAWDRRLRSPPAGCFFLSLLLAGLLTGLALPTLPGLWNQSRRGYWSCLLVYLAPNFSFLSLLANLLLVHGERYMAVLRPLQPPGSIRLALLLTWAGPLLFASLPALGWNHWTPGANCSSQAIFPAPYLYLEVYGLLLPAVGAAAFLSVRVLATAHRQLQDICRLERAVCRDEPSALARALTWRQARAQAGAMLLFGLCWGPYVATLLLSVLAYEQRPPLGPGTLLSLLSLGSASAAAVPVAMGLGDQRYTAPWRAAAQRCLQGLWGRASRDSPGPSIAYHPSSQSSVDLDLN
Kind of assay: Cell-based TGR5 assay (cAMP generation, HTRF). The settings on record: HEK293 cells stably transfected with human TGR5; cAMP by HTRF; 30 minutes at 37° C.; read-out: pEC50 Human TGR5 (converted). Put shortly:
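First, compounds in 3-fold serial dilution were placed in HBSS with 10 mM HEPES pH 7.4 and 0.5 mM IBMX. Next, human TGR5-expressing HEK293 cells were added and incubated 30 min at 37° C. Finally, cAMP was detected by HTRF and pEC50 derived by logistic fitting.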

Assay [1] concerns mice with 5-FU-induced diarrhea. In words: Chemotherapy-induced diarrhea model (5-FU), fecal form score. It counts as in vivo, CD-1 female mice. Conditions: 5-FU 60 mg/kg IP days 5-11; I-388 30 mg/kg PO BID, teduglutide 0.4 mg/kg SQ BID, days 1-13; FFS days 11-13 summed; FIG. 1. On the procedure:
Four groups of adult CD-1 female mice on regular chow were dosed with the following BID starting on Day 1: 2 groups, vehicle (10% hydroxypropyl-β-cyclodextrin in PBS; PO; 5 mL/kg); 1 group, Compound I-388 at 30 mg/kg in vehicle (PO; 5 mL/kg); and 1 group, teduglutide 0.4 mg/kg (American Peptide, Sunnyvale, CA; reconstituted in PBS; SQ; 10 mL/kg) 0.4 mg/kg SQ. On Days 5-11, the groups of mice were also given QD IP injections (5 mL/kg) of the following treatments: first vehicle group, PBS and remaining groups, 5-fluorouracil (5-FU) 60 mg/kg (Fresenius Kabi USA, Lake Zurich, IL) diluted in PBS to induce mucositis with diarrhea. Body weight was measured throughout the study and fecal form was scored on Day 11-13 of the study according to the following scale: 0, normal stool; 1, slightly wet and soft stool; 2, wet and unformed stool with moderate perianal staining of the coat; 3, watery stool with severe perianal staining of the coat.
All mice were dosed on day 1-13 with vehicle, with 0.4 mg/kg of teduglutide, or with 30 mg/kg of compound I-388 (vehicle and Cmpd. I-388: PO, […] and teduglutide: SQ, 10 mL/kg). PBS or 5-FU at 60 mg/kg (used to induce mucositis and diarrhea) were administered interperionally (IP; 5 mL/kg) on days 5-11.

In assay [2] the test system is mice with DSS-induced colitis. Kind of assay: Inflammatory bowel disease model (DSS colitis): DAI, colon length, cytokines, histology. The settings on record: I-389 30 mg/kg PO BID. Type of assay: in vivo, C57BL/6 female mice. The procedure: Six week old C57BL/6 female, were acclimated for 2 days. Starting on Day −2, 5 groups of mice were dosed PO (mL/kg) BID with 1) vehicle (10% HPCD); 2) vehicle; 3) vehicle; mice had sitagliptin (3.6 g/L for a dose of ˜800 mg/kg/day) added to their drinking water; 4) I-389 30 mg/kg; or 5) I-389 30 mg/kg; mice had sitagliptin (3.6 g/L for a dose of 800 mg/kg/day) added to their drinking water. On Day 0, mice in groups 2-5 were put on drinking water containing 1.5% DSS to induce colitis. Note: Groups 3 & 5 were on drinking water containing both DSS and sitagliptin. On Day 7, mice were taken off of DSS treatment and received either regular drinking water (Groups 1, 2, and 4) or drinking water with sitagliptin (Groups 3 and 5). On Day 8, mice were transferred to a separate container for DAI scoring which consists of evaluation of stool consistency, blood in stool, incidence of rectal prolapse, and body condition according to the scoring system shown in Table 19. The DAI score is a summation of each individual score in each category (columns) for a single animal. Mice were euthanized, blood was collected for plasma, colons were removed for length measurement, cytokine analysis, and histological staining, pathological analysis and scoring of colonic tissue damage. Colonic tissue damage was scored according to observed microscopic changes based on the following schema: 0=no significant change, 1=minimal, 2=mild, 3=moderate and 4=severe. Parametric data for each group are presented as mean±SEM. Statistical analysis was performed using one-way ANOVA followed by Holm-Sidak's multiple comparisons test. Statistical significance versus DSS/vehicle is marked as *, P<0.05; **, P<0.01, ***, P<0.001, and ****, P<0.0001. Statistical significance versus DSS/I-389 is marked as †††, P<0.001. Non-parametric data for each group is shown as a dot blot with median (line). Statistical analysis was performed using Kruskal-Wallis test followed by Dunn's test to detect differences between groups.

Assay [3] has as its system small intestine and colon of mice. Kind of assay: Small intestine and colon weight, villus/crypt length, colon crypt depth, plasma GLP-1 and GLP-2 in mice. It counts as in vivo, CD-1 female mice. The settings on record: ten consecutive days. On the procedure:
Tedulgutide (a GLP-2 receptor agonist; American Peptide, catalog #304076, supplied by Bachem) 50 μg/kg in […] was injected SC in a control group BID during the same period. […] The small intestine and colon were collected, flushed with cold PBS to remove contests, patted dry, weighed and further trimmed for histological analysis. Morphometric analysis was performed to determine the villus/crypt length in the proximal jejunum and distal ileum and crypt depth (length) in the proximal colon.
Data for each group are presented as mean±SEM. Statistical analyses were performed using one-way ANOVA followed by Holm-Sidak's multiple comparisons test. Statistical significance compared to vehicle (WD) is marked as *, P<0.05; **, P<0.01, ***, P<0.001, and ****, P<0.0001.

For the molecule `O=C(NCCCCNS(=O)(=O)c1ccc(Cl)c(COC2(c3cnccc3-c3ccccc3OC3CC3)CC2)c1)[C@@H](O)[C@@H](O)[C@H](O)[C@@H](O)CO` [Compound I-388, (2S,3S,4R,5S)-N-(4-[[4-chloro-3-([1-[4-(2-cyclopropoxyphenyl)pyridin-3-yl]cyclopropoxy]methyl)benzene]sulfonamido]butyl)-2,3,4,5,6-pentahydroxyhexanamide], at human TGR5, the EC50 was less than 100 nM. Moreover, in assay [1], the “cumulative fecal form score (FFS)” value is “significantly improved”.

In the case of `N[C@@H](CC(=O)N1CCn2c(nnc2C(F)(F)F)C1)Cc1cc(F)c(F)cc1F` [sitagliptin], the DSS-induced colonic damage result in assay [2] (1.5% DSS in drinking water, sitagliptin 3.6 g/L in drinking water (~800 mg/kg/day)) is “partially abrogated”. For the same molecule, the “disease activity score (DAI)” value in assay [2] (Day 8, 1.5% DSS, sitagliptin ~800 mg/kg/day in drinking water, vehicle/DSS 5.6, FIG. 2) worked out at 3.0. The molecule further displayed a colon length in assay [2] (Day 8, 1.5% DSS, sitagliptin ~800 mg/kg/day, mean±SEM, vehicle/DSS 4.7±0.1, FIG. 3) of 5.6±0.2 cm.

For `CC[C@H](C)[C@H](NC(=O)[C@H](Cc1ccccc1)NC(=O)[C@H](CC(=O)O)NC(=O)[C@H](CCCNC(=N)N)NC(=O)[C@H](C)NC(=O)[C@H](C)NC(=O)[C@H](CC(C)C)NC(=O)[C@H](CC(N)=O)NC(=O)[C@H](CC(=O)O)NC(=O)[C@H](CC(C)C)NC(=O)[C@@H](NC(=O)[C@@H](NC(=O)[C@H](CC(N)=O)NC(=O)[C@H](CCSC)NC(=O)[C@H](CCC(=O)O)NC(=O)[C@H](CC(=O)O)NC(=O)[C@H](CO)NC(=O)[C@H](Cc1ccccc1)NC(=O)[C@H](CO)NC(=O)CNC(=O)[C@H](CC(=O)O)NC(=O)CNC(=O)[C@@H](N)Cc1c[nH]cn1)[C@@H](C)O)[C@@H](C)CC)C(=O)N[C@@H](CC(N)=O)C(=O)N[C@@H](Cc1c[nH]c2ccccc12)C(=O)N[C@@H](CC(C)C)C(=O)N[C@H](C(=O)N[C@@H](CCC(N)=O)C(=O)N[C@H](C(=O)N[C@@H](CCCCN)C(=O)N[C@H](C(=O)N[C@H](C(=O)N[C@@H](CC(=O)O)C(=O)O)[C@@H](C)O)[C@@H](C)CC)[C@@H](C)O)[C@@H](C)CC` [teduglutide], in assay [3] (teduglutide 50 μg/kg SC BID (trend), I-389 100 mg/kg PO BID co-dosed with sitagliptin 3.6 g/L in drinking water, FIG. 7, FIG. 8), the “increase of colon weight” value came to 14%. The “increase of small intestine weight” value in assay [3] (teduglutide 50 μg/kg SC BID, FIG. 7) was 48%. Also, the “increase of villus-crypt length in the proximal jejunum” value in assay [3] (teduglutide 50 μg/kg SC BID, I-389 100 mg/kg PO BID + sitagliptin, FIG. 9) is 55%. Also, the “increase of villus-crypt length in the distal ileum” value in assay [3] (teduglutide 50 μg/kg SC BID, I-389 100 mg/kg PO BID + sitagliptin, FIG. 10) was 30%. For the same molecule, the “cumulative fecal form score (FFS)” value in assay [1] is on record as “significantly improved”.
